Common to all, as to assay type: binding
Common to all, as to design: KINOMEscan: ABL1(F317L)-phosphorylated / KINOMEscan: ABL1(H396P)-nonphosphorylated / KINOMEscan: ABL1(H396P)-phosphorylated / KINOMEscan: ABL1(M351T)-phosphorylated / KINOMEscan: ABL1(T315I)-phosphorylated / KINOMEscan: ABL1-nonphosphorylated / KINOMEscan: ABL1-phosphorylated / KINOMEscan: ACVR2A / KINOMEscan: ACVR2B / KINOMEscan: ADCK3 / KINOMEscan: ADCK4 / KINOMEscan: AKT1 / KINOMEscan: AKT3 / KINOMEscan: ALK / KINOMEscan: ARK5 / KINOMEscan: AURKA / KINOMEscan: AURKC / KINOMEscan: BIKE / KINOMEscan: BMPR1A / KINOMEscan: BMPR1B / KINOMEscan: BMX / KINOMEscan: BRK / KINOMEscan: BRSK1 / KINOMEscan: BRSK2 / KINOMEscan: CAMK1 / KINOMEscan: CAMK1D / KINOMEscan: CAMK1G / KINOMEscan: CAMK2A / KINOMEscan: CAMK2B / KINOMEscan: AAK1 / KINOMEscan: CAMK2D / KINOMEscan: CAMK2G / KINOMEscan: ABL1(F317I)-nonphosphorylated / KINOMEscan: ABL1(F317I)-phosphorylated / KINOMEscan: ABL1(F317L)-nonphosphorylated: unit: % Ctrl
What all share (conditions): Compound Concentration 10 µM

Test [1] deals with T1, panel of 442 kinases (Homo sapiens, UniProt Q14012).
T1 construct: purchased KINOMEscan
An excerpt:
(§1) We assessed the selectivity of members of this scaffold using the KINOMEscan methodology across a near comprehensive panel of 442 kinases [[18,27]].

Test [2] has as its target T2, panel of 442 kinases (Homo sapiens, UniProt Q9Y2H1).
T2 construct: purchased KINOMEscan
From the text: as §1

In test [3] the target is T3, panel of 442 kinases (Homo sapiens, UniProt P49674).
T3 construct: purchased KINOMEscan
From the text: as §1

Test [4] addresses T4, panel of 442 kinases (Homo sapiens, UniProt Q05397).
T4 construct: purchased KINOMEscan
From the text: as §1

T4 sequence (Q05397 whole entry): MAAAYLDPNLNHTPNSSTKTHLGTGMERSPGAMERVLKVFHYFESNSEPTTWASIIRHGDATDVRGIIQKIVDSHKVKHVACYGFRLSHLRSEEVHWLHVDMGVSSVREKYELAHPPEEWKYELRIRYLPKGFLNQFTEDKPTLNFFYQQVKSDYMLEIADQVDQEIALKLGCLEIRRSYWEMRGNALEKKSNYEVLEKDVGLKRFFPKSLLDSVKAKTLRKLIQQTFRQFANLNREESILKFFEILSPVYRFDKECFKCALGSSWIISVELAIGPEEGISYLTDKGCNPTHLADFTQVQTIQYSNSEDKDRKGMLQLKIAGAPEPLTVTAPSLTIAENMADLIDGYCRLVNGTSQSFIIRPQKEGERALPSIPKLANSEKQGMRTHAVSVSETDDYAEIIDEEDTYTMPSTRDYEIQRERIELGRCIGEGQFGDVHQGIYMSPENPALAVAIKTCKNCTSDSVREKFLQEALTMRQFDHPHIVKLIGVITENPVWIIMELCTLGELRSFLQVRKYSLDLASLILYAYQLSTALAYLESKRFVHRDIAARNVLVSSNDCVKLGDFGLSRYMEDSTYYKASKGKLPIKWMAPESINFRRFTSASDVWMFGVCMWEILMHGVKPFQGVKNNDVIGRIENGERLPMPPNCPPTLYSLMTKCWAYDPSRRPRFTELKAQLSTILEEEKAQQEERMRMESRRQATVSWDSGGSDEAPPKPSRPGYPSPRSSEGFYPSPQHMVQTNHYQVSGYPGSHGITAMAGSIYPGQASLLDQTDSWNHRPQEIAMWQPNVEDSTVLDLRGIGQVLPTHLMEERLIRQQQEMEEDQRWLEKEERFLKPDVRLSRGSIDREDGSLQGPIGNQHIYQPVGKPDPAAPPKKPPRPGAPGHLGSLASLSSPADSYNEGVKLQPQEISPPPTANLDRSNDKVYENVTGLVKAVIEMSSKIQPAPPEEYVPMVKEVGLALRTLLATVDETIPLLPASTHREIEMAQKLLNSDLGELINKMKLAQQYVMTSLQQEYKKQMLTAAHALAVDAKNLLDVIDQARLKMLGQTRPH
T3 sequence (P49674 whole entry): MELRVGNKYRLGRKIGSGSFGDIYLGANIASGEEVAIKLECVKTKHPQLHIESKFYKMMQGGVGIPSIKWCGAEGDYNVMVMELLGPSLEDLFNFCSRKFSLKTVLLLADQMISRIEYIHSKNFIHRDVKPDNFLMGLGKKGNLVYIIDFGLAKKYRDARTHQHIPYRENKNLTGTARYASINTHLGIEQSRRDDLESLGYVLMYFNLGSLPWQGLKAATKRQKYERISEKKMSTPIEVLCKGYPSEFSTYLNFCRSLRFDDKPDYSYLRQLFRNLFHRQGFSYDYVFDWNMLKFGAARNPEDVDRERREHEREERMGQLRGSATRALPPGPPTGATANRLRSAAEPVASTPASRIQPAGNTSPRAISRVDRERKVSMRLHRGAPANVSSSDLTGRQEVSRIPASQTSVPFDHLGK
T2 sequence (Q9Y2H1 whole entry): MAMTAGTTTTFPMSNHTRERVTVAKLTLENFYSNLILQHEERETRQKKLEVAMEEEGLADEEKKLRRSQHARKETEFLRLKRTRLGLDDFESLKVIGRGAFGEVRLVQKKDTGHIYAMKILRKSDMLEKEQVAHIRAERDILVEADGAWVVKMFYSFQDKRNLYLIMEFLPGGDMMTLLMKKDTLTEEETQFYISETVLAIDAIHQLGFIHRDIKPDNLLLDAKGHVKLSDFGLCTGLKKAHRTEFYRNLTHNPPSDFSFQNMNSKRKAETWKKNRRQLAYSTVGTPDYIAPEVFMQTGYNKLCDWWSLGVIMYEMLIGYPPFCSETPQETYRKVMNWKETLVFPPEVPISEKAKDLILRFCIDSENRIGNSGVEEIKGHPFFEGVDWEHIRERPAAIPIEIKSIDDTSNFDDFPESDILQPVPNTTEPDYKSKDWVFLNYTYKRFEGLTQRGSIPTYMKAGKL
T1 sequence (Q14012 whole entry): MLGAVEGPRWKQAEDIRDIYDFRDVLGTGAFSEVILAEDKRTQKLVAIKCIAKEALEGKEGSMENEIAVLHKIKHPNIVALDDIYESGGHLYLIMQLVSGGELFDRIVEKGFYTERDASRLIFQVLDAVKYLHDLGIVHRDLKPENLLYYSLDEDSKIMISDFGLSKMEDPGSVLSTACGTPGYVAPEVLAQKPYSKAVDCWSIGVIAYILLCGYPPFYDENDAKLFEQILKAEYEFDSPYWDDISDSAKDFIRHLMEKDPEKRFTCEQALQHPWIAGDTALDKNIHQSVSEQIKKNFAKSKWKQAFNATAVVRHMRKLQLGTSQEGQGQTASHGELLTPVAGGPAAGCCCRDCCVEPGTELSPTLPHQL

For `CCOc1cc(C(=O)N2CCC(N3CCN(C)CC3)CC2)ccc1Nc1ncc2c(n1)N(C1CCCC1)c1ccccc1C(=O)N2C` [Compound 26], the “KINOMEscan: CAMK1” value in test [1] is on record as 37. In addition, in test [2], the “KINOMEscan: NDR2” value is 100. Moreover, the “KINOMEscan: CSNK1E” value in test [3] was determined as 100. Further, the “KINOMEscan: FAK” value in test [4] was found to be 57.
Turning to `COc1cc(C(=O)N2CCC(N3CCN(C)CC3)CC2)ccc1Nc1ncc2c(n1)N1CCc3cccc(c31)C(=O)N2C` [Compound 24], the “KINOMEscan: CAMK1” value in test [1] amounted to 68. In test [3], the “KINOMEscan: CSNK1E” value was found to be 81.
With `COc1cc(C(=O)N2CCC(N3CCN(C)CC3)CC2)ccc1Nc1ncc2c(n1)N(C)c1ccccc1C(=O)N2C` [15 (LRRK2-IN-1)], the “KINOMEscan: CAMK1” value in test [1] was 55. For the same molecule, in test [2], the “KINOMEscan: NDR2” value turned out to be 100. Besides, the “KINOMEscan: CSNK1E” value in test [3] came out at 95. The “KINOMEscan: FAK” value in test [4] is given as 34.
For `COc1cc(C(=O)N2CCC(N3CCN(C)CC3)CC2)ccc1Nc1ncc2c(n1)N(C1CCCC1)c1ccccc1C(=O)N2C` [Compound 25, 11-cyclopentyl-2-((2-methoxy-4-(4-(4-methylpiperazin-1-yl)piperidine-1-carbonyl)phenyl)amino)-5-methyl-5H-benzo[e]pyrimido[5,4-b][1,4]diazepin-6(11H)-one] the same measures were 48, 100, 100 and 19.

(Values after article PMC3914206.)
